{"source": "patent US20050032743A1", "about": "“Compositions and method for steroid homeostasis” (priority 2002, published 2005)", "key": {"[1]": {"tested_on": "serum/plasma concentrations of testosterone, 25-hydroxy vitamin D, and dehydroepiandrosterone", "assay": "Effect of calcium fructoborate on selected steroids in healthy volunteers", "assay_type": "in vivo, human", "conditions": "for DHEA (dehydroepiandrosterone serum/plasma concentration) / TES (Testosterone serum/plasma concentration) / VITD (Vitamin D serum/plasma concentration): individual volunteer", "procedure": "A group of healthy volunteers was given after obtaining their informed consent a daily oral dose of 6 mg Calcium fructoborate (as prepared in Example 1 above) for a period of 60 days, and the serum/plasma concentrations of testosterone, 25-hydroxy vitamin D, and dehydroepiandrosterone was determined in an independent clinical laboratory. Table 1 below summarizes the results in which TES refers to ng/ml Testosterone, DHEA refers to mcg/ml dehydroepiandrosterone, and VITD refers to ng/ml Vitamin D. The first number is the serum/plasma concentration at the beginning of the trial while the second number is the serum/plasma concentration after 60 days."}, "[2]": {"tested_on": "Vitamin D deficient Sprague Dawley rats", "assay": "Effect of calcium fructoborate on bone density in vitamin D deficient rats", "assay_type": "in vivo", "procedure": "Vitamin D deficient Sprague Dawley rats (21 days old) were divided into three groups and fed a regulated vitamin D deficient diet (0.47% Ca, 0.3% P) over a period of 9 weeks. The diet of the first group was supplemented with calcium fructoborate at 30 mcg/gm, the diet of the second group was supplemented with calcium fructoborate at 185 mcg/gm, and the diet of the third group was left unchanged as a control group. At the end of the test period animals of all three groups were evaluated for increase in vitamin D levels and increase in bone density."}, "[3]": {"conditions": "after 60 days of daily oral 6 mg (second number)"}, "[4]": {"conditions": "at the beginning of the trial (first number)"}, "[5]": {"conditions": "daily oral 6 mg, 60 days, four volunteers"}, "[6]": {"conditions": "severely vitamin D deficient rats, 9 weeks"}}, "note": "Several values for one entry are separate records, joined by “and”; a condition that tells them apart may be missing. Equal values may be shown once.", "data": [{"substance": "calcium fructoborate", "values": [{"measurement": "DHEA (dehydroepiandrosterone serum/plasma concentration)", "setting": "[1]; [3]", "value": "2.1 mcg/ml (2×) and 4.1 mcg/ml and 2.95 mcg/ml"}, {"measurement": "TES (Testosterone serum/plasma concentration)", "setting": "[1]; [3]", "value": "14.1 ng/mL and 8.2 ng/mL and 7.8 ng/mL and 8.0 ng/mL"}, {"measurement": "VITD (Vitamin D serum/plasma concentration)", "setting": "[1]; [3]", "value": "9.9 ng/mL and 16.1 ng/mL and 15.8 ng/mL and 12.0 ng/mL"}, {"measurement": "DHEA (dehydroepiandrosterone serum/plasma concentration)", "setting": "[1]; [4]", "value": "1.9 mcg/ml (2×) and 3.5 mcg/ml and 2.75 mcg/ml"}, {"measurement": "TES (Testosterone serum/plasma concentration)", "setting": "[1]; [4]", "value": "11.9 ng/ml and 6.3 ng/ml and 6.2 ng/ml (2×)"}, {"measurement": "VITD (Vitamin D serum/plasma concentration)", "setting": "[1]; [4]", "value": "7.9 ng/mL and 12.1 ng/mL and 11.8 ng/mL and 9.3 ng/mL"}, {"measurement": "serum/plasma concentration of various steroids", "setting": "[1]; daily oral 6 mg, 60 days", "value": "significantly increased"}, {"measurement": "Average increase DHEA", "setting": "[1]; [5]", "value": 11, "unit": "%"}, {"measurement": "Average increase TES", "setting": "[1]; [5]", "value": 25, "unit": "%"}, {"measurement": "Average increase VITD", "setting": "[1]; [5]", "value": 28, "unit": "%"}, {"measurement": "bone ash increase over the control", "setting": "[2]; first test group, diet supplemented at 30 mcg/gm, 9 weeks", "value": 1.4, "unit": "%"}, {"measurement": "bone ash increase over the control", "setting": "[2]; second test group, diet supplemented at 185 mcg/gm, 9 weeks", "value": 5.8, "unit": "%"}, {"measurement": "conservation or biosynthesis of vitamin D", "setting": "[2]; [6]", "value": "did not conserve or promote biosynthesis of vitamin D"}, {"measurement": "growth of the animals", "setting": "[2]; [6]", "value": "failed to promote growth of the animals"}, {"measurement": "raising the serum calcium concentration above the control", "setting": "[2]; [6]", "value": "failed"}, {"measurement": "bone density", "setting": "[2]; under vitamin D deficiency conditions", "value": "increased the bone density"}]}]}
